Molecular target: His-Tagged hOGA (human O-GlcNAcase) (Homo sapiens (Human), UniProt O60502)
Assay: Human O-GlcNAcase enzyme inhibition assay (Example B01)
Assay type: biochemical
Details: OGA enzyme inhibition assay; activity range classes defined in μM; read-out: OGA IC50

His-Tagged hOGA (human O-GlcNAcase), sequence (O60502 whole entry): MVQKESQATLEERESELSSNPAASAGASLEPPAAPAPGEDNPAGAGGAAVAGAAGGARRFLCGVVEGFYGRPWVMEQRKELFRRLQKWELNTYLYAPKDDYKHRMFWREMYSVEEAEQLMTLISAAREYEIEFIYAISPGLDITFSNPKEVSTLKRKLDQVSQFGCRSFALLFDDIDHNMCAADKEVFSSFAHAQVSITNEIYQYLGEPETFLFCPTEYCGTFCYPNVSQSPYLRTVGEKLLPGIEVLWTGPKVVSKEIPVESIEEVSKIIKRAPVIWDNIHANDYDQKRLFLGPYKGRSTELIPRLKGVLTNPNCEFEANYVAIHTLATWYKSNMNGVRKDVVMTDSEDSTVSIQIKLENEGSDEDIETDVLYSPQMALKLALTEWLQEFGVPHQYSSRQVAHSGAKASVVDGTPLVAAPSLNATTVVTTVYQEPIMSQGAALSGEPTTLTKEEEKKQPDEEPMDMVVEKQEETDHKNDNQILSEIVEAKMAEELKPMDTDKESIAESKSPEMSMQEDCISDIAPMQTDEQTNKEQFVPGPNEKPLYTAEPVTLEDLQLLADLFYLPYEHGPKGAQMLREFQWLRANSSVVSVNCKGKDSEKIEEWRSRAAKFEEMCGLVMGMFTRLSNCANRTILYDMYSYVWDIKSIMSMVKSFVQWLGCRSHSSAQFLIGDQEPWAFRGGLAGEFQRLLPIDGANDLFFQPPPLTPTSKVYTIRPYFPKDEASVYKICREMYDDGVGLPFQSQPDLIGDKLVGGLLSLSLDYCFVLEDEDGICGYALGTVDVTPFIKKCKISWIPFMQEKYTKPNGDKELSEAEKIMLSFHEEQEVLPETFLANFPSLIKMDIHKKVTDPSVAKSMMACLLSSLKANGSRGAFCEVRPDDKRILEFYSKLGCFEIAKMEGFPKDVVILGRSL

IC50 [µM]	Compound
0.2 to 1	Cc1csc(C2CCN(C(C)c3ccc4c(c3)OCO4)CC2)n1 (racemic) [Example 1, 2-(1-(1-(Benzo[d][1,3]dioxol-5-yl)ethyl)piperidin-4-yl)-4-methylthiazole]
0.2 to 1	Cc1nnc(C2CCN(C(C)c3ccc4c(c3)OCO4)CC2)o1 (racemic) [Example 2, 2-(1-(1-(benzo[d][1,3]dioxol-5-yl)ethyl)piperidin-4-yl)-5-methyl-1,3,4-oxadiazole]
1 to 10	Cc1cnn(C2CCN(C(C)c3ccc4c(c3)OCO4)CC2)c1 (racemic) [Example 3, 1-(1-(benzo[d][1,3]dioxol-5-yl)ethyl)-4-(4-methyl-1H-pyrazol-1-yl)piperidine]
0.2 to 1	Cc1noc(C2CCN(C(C)c3ccc4c(c3)OCO4)CC2)n1 (racemic) [Example 4, 5-(1-(1-(Benzo[d][1,3]dioxol-5-yl)ethyl)piperidin-4-yl)-3-methyl-1,2,4-oxadiazole]
0.2 to 1	CC(c1ccc2c(c1)OCO2)N1CCN(c2nc(-c3ccccc3)cs2)CC1 (racemic) [Example 5, 2-(4-(1-(Benzo[d][1,3]dioxol-5-yl)ethyl)piperazin-1-yl)-4-phenylthiazole]
1 to 10	COc1ccc(-c2csc(N3CCN(C(C)c4ccc5c(c4)OCO5)CC3)n2)cc1 (racemic) [Example 6, 2-(4-(1-(Benzo[d][1,3]dioxol-5-yl)ethyl)piperazin-1-yl)-4-(4-methoxyphenyl)thiazole]
0.2 to 1	CC(c1ccc2c(c1)OCO2)N1CCN(c2nccs2)CC1 (racemic) [Example 7, 2-(4-(1-(Benzo[d][1,3]dioxol-5-yl)ethyl)piperazin-1-yl)thiazole]
0.05 to 0.2	CC(c1ccc2c(c1)OCO2)N1CCN(c2cnc(I)nc2)CC1 (racemic) [Example 8, -5-(4-(1-(benzo[d][1,3]dioxol-5-yl)ethyl)piperazin-1-yl)-2-iodopyrimidine]
0.2 to 1	Cc1ccnc(N2CCN(C(C)c3ccc4c(c3)OCO4)CC2)n1 (racemic) [Example 9, 2-(4-(1-(Benzo[d][1,3]dioxol-5-yl)ethyl)piperazin-1-yl)-4-methylpyrimidine]
0.2 to 1	CC(c1ccc2c(c1)OCO2)N1CCN(c2ccccn2)CC1 (racemic) [Example 10, 1-(1-(Benzo[d][1,3]dioxol-5-yl)ethyl)-4-(pyridin-2-yl)piperazine]
0.2 to 1	CC(C)c1csc(N2CCN(C(C)c3ccc4c(c3)OCO4)CC2)n1 (racemic) [Example 12, 2-(4-(1-(Benzo[d][1,3]dioxol-5-yl)ethyl)piperazin-1-yl)-4-isopropylthiazole]
0.2 to 1	CC(c1ccc2c(c1)OCO2)N1CCN(c2nc(C(F)(F)F)cs2)CC1 (racemic) [Example 13, 2-(4-(1-(Benzo[d][1,3]dioxol-5-yl)ethyl)piperazin-1-yl)-4-(trifluoromethyl)thiazole]
0.2 to 1	Cc1ccc(N2CCN(C(C)c3ccc4c(c3)OCO4)CC2)nc1 (racemic) [Example 14, 1-(1-(Benzo[d][1,3]dioxol-5-yl)ethyl)-4-(5-methylpyridin-2-yl)piperazine]
1 to 10	CC(c1ccc2c(c1)OCO2)N1CCN(c2nc(C(C)(C)C)cs2)CC1 (racemic) [Example 16, 2-(4-(1-(benzo[d][1,3]dioxol-5-yl)ethyl)piperazin-1-yl)-4-(tert-butyl)thiazole]
0.2 to 1	CCOC(=O)c1csc(N2CCN(C(C)c3ccc4c(c3)OCO4)CC2)n1 (racemic) [Example 17, Ethyl 2-(4-(1-(benzo[d][1,3]dioxol-5-yl)ethyl)piperazin-1-yl)thiazole-4-carboxylate]
0.05 to 0.2	CC(c1ccc2c(c1)OCO2)N1CCN(c2nc(C(=O)O)cs2)CC1 (racemic) [Example 18, 2-(4-(1-(Benzo[d][1,3]dioxol-5-yl)ethyl)piperazin-1-yl)thiazole-4-carboxylic acid]
0.2 to 1	CCc1csc(N2CCN(C(C)c3ccc4c(c3)OCO4)CC2)n1 (racemic) [Example 19, 2-(4-(1-(Benzo[d][1,3]dioxol-5-yl)ethyl)piperazin-1-yl)-4-ethylthiazole]
